Where “and” joins values, the source holds several entries; their conditions need not be identical. Identical values can stand only once. Counter-ions that a name gives are not always drawn. Like-named read-outs stand apart in the source and are kept apart here.
Legend:
[1] = for release from pure thermo-responsive hydrogels: previous tests
Protocol: Drug release was carried out in PBS at 37° C. […] Drug release samples were taken at predetermined time intervals and tested for anti-proliferative activity with fibroblast MTS assay as described previously. Briefly, 3T3 fibroblast cells were seeded in 96-well plates as 5000 cells/well. After cells were grown to semiconfluence, growth was arrested by washing plates with PBS and then adding low serum medium with DMEM, 0.5% (v/v) FBS and 1% (v/v) penicillin/streptomycin mixture. Growth arrest was maintained for 24 hours. The cell cycle synchronized cells were then re-stimulated to enter G1 phase by changing back to growth medium. […] PBS was added to growth medium as control group.
To quantify the size distribution of nanospheres, the suspension was sampled and serially filtered through 0.45 μm, 0.22 μm, and 0.1 μm filters. The drug concentration after each filtration was quantified and calculated within each nanosphere size distribution. Nanospheres with size >100 nm in diameter were harvested by ultrafiltration and centrifugation. The harvested nanospheres were washed twice with DI water to remove excess PVA. The resultant nanosphere suspension was immersed in fresh PBS at 37° C. to initiate release. […] The release samples were taken continuously for 1 day. All samples were quantified for 3H concentration using a scintillation counter. Each experiment was conducted in triplicate.
The samples were taken continuously for the first 24 hours. The drug concentration was measured spectrophotometrically at 240 nm.

[2] = oil: methylene chloride + methanol

What does the source list for `C[C@@H]1C[C@H]2[C@@H]3CCC4=CC(=O)C=C[C@]4(C)[C@@]3(F)[C@@H](O)C[C@]2(C)[C@@]1(O)C(=O)COP(=O)(O)O` [Dexamethasone sodium phosphate, Dexamethasone 21-phosphate disodium salt]?
release from free nanospheres ([1]; PBS, 37° C.): sustained release over 24 hours; release from nanospheres loaded hydrogels ([1]; PBS, 37° C.): sustained release over 24 hours; release from pure thermo-responsive hydrogels ([1]; after the first two hours): less than 10%; drug release from PLGA nanospheres ([1]; within 24 hours, 37° C., PBS, disodium salt): > 90% and ~90%; release from pure thermo-responsive hydrogels ([1]; within the first two hours): ~90%; P (oil/water) ([2]; water: 0.2% PVA): 0.06; P (oil/water) ([2]; water: 2% PVA): 0.15; P (oil/water) ([2]; water: 2% PVA + 0.25N (NH4)2SO4): 0.86; P (oil/water) ([2]; water: 2% PVA + 0.5N NaCl): 0.26

With `[3H]C1=C([3H])[C@@]2(C)C(=C([3H])C1=O)CC[C@H]1[C@@H]3C[C@@H](C)[C@](O)(C(=O)CO)[C@@]3(C)C[C@H](O)[C@@]12F` [[1,2,4-^3H]dexamethasone, [1,2,4-^3H]dexamethasone] as the compound, how does the “P (oil/water)” value ([2]; water: 0.2% PVA) read?
Its value is 2.93.

— US20140065226A1, “THERMO-RESPONSIVE HYDROGEL COMPOSITIONS” (priority 2011, published 2014)
